Numbered stars: 1 amine (or outer) side, 2 acyl side, 3 side chain; on linkers, the order of the positions; unused ones are H or OH. Bridge positions count the residues as written; N and C are the ends. Square brackets hold non-standard residues; d marks the D form. Peptide text beside a SMILES is read from it. * marks the point of attachment. hPhe(3-Cl-4-CF3) = N[C@@H](CCc1ccc(C(F)(F)F)c(Cl)c1)C(=O)O; hPhe(3-F,4-CF3) = N[C@@H](CCc1ccc(C(F)(F)F)c(F)c1)C(=O)O; NEtPhe(4-CF3) = CCN[C@@H](Cc1ccc(C(F)(F)F)cc1)C(=O)O; hPhe(4-CF3) = N[C@@H](CCc1ccc(C(F)(F)F)cc1)C(=O)O; 3Oxa8azabicyclo(3.2.1)octane = C1CC2COCC1N2*; NMePhe(4-Me) = CN[C@@H](Cc1ccc(C)cc1)C(=O)O; NMedβ3hAla = C[C@H](CC(=O)[*:2])N(C)[*:1]; NMeAla(cPent) = CN[C@@H](CC1CCCC1)C(=O)O; NMeNva(5,5-F2) = CN[C@@H](CCC(F)F)C(=O)O; X69 = CN(C)C(=O)COCCN(CC(=O)[*:2])[*:1]; NMeGly(cPent) = CN[C@H](C(=O)O)C1CCCC1; Pro(4,4-F2) = O=C(O)[C@@H]1CC(F)(F)CN1; mXylylene = c1cc(C[*:1])cc(C[*:2])c1; NMeCha = CN[C@@H](CC1CCCCC1)C(=O)O; cisHyp = O=C(O)[C@@H]1C[C@H](O)CN1; X4 = C#CC[C@H](CC(=O)[*:2])N[*:1]; NEtLeu = CCN[C@@H](CC(C)C)C(=O)O; NMeChg = CN[C@H](C(=O)O)C1CCCCC1; NMeI = CC[C@H](C)[C@H](NC)C(=O)O; N(CH2CH2)2CF2 = FC1(F)CCN(*)CC1; NMeD = CN[C@@H](CC(=O)O)C(=O)O; NMeL = CN[C@@H](CC(C)C)C(=O)O; NMeNle = CCCC[C@H](NC)C(=O)O; NMeV = CN[C@H](C(=O)O)C(C)C; Trifluoroethyl = FC(F)(F)C*; d(β3hA) = C[C@@H](N)CC(=O)O; NMeAbu = CC[C@H](NC)C(=O)O; NMeS = CN[C@@H](CO)C(=O)O; NMeA = CN[C@@H](C)C(=O)O; NMeAib = CNC(C)(C)C(=O)O; Piperidide = C1CCN(*)CC1; dNMeA = CN[C@H](C)C(=O)O; Ac5c = NC1(C(=O)O)CCCC1; Aze = O=C(O)[C@@H]1CCN1; Ac4c = NC1(C(=O)O)CCC1; Aib = CC(C)(N)C(=O)O; Sar = CNCC(=O)O; Propyl = CCC*
These compounds were tested against protein-protein interaction between Kras and SOS1 (biotin-tagged human Kras loaded with GDP, His-tagged human SOS1) (Homo sapiens (Human), UniProt P01116, G12D) (assay: Protein-protein interaction inhibition between Kras and SOS1 (KrasG12D-SOS PPI) using AlphaScreen). Conditions: AlphaScreen; biotin-tagged human Kras loaded with GDP, His-tagged human SOS1; read-out: KRAS G12D-SOS PPI IC50.
Type: biochemical

SMILES	IC50 [nM]
CC[C@H](C)[C@@H]1NC(=O)[C@H](CC(C)C)N(C)C(=O)C[C@@H](C(=O)N2CCCCC2)N(C)C(=O)[C@H](C2CCCCC2)N(C)C(=O)C2(CCCC2)NC(=O)CN(CCOCC(=O)N(C)C)C(=O)[C@H](CCc2ccc(C(F)(F)F)c(Cl)c2)NC(=O)CN(C)C(=O)[C@H](CC2CCCCC2)N(C)C(=O)CN(C)C(=O)CN(C)C1=O [Compound 2038, 2-[2-[(11S,17S,26S,29S,33S,36S)-11-[2-[3-chloro-4-(Trifluoromethyl)phenyl]ethyl]-36-cyclohexyl-17-(cyclohexylmethyl)-29-isobutyl-15,18,21,24,30,34,37-heptamethyl-26-[(1S)-1-methylpropyl]-7,10,13,16,19,22,25,28,31,35,38-undecaoxo-33-(piperidine-1-carbonyl)-6,9,12,15,18,21,24,27,30,34,37-undecazaspiro[4.33]octatriacontan-9-yl]ethoxy]-N,N-dimethyl-acetamide] ([NMeL]I[Sar][Sar][NMeCha][Sar][hPhe(3-Cl-4-CF3)][X69][Ac5c][NMeChg][NMeD]-Piperidide; lactam N-11)	8.3
CC[C@H](C)[C@@H]1NC(=O)[C@H](CC)N(C)C(=O)C[C@@H](C(=O)N2CCCCC2)N(C)C(=O)[C@H](C(C)C)N(C)C(=O)C2(CCCC2)NC(=O)[C@@H]2CCCN2C(=O)[C@H](CCc2ccc(C(F)(F)F)c(Cl)c2)NC(=O)CN(C)C(=O)[C@H](CC2CCCCC2)N(C)C(=O)[C@@H]2CCN2C(=O)[C@H](C)N(C)C1=O [Compound 1638] ([NMeAbu]I[NMeA][Aze][NMeCha][Sar][hPhe(3-Cl-4-CF3)]P[Ac5c][NMeV][NMeD]-Piperidide; lactam N-11)	7.3
CC[C@H](C)[C@@H]1NC(=O)[C@H](CC(C)C)N(C)C(=O)C[C@@H](C)NC(=O)[C@H](CC(C)C)N(C)C(=O)C(C)(C)NC(=O)[C@H](CC(C)C)N(C)C(=O)[C@H](CCc2ccc(C(F)(F)F)cc2)NC(=O)CN(C)C(=O)[C@H](CC2CCCCC2)N(C)C(=O)CN(C)C(=O)CN(C)C1=O [Compound 839] (cyclo([Aib][NMeL][d(β3hA)][NMeL]I[Sar][Sar][NMeCha][Sar][hPhe(4-CF3)][NMeL]))	220
CC[C@H](C)[C@@H]1NC(=O)[C@H](CC(C)C)N(C)C(=O)C[C@@H](C(=O)N2CCCCC2)N(C)C(=O)[C@H](CC(C)C)N(C)C(=O)C2(CCCC2)NC(=O)[C@@H]2C[C@H](OCc3cccc(C)c3)CN2C(=O)[C@H](CCc2ccc(C(F)(F)F)c(F)c2)NC(=O)CN(C)C(=O)[C@H](CC2CCCCC2)N(C)C(=O)CN(C)C(=O)CN(C)C1=O [Compound 2141] ([NMeL]I[Sar][Sar][NMeCha][Sar][hPhe(3-F,4-CF3)][cisHyp](mXylylene)[Ac5c][NMeL][NMeD]-Piperidide; lactam N-11)	72
CC[C@H](C)[C@@H]1NC(=O)[C@H](CC(C)C)N(C)C(=O)C[C@@H](C(=O)N2CCCCC2)N(C)C(=O)[C@H](C2CCCCC2)N(C)C(=O)C2(CCCC2)NC(=O)[C@@H]2C[C@H](O)CN2C(=O)[C@H](CCc2ccc(C(F)(F)F)c(Cl)c2)NC(=O)CN(C)C(=O)[C@H](CC2CCCCC2)N(C)C(=O)CN(C)C(=O)CN(C)C1=O [Compound 1374, (3S,9S,18S,21S,25S,28S,34S,36S)-3-[2-[3-chloro-4-(trifluoromethyl)phenyl]ethyl]-28-cyclohexyl-9-(cyclohexylmethyl)-36-hydroxy-21-isobutyl-7,10,13,16,22,26,29-heptamethyl-18-[(1S)-1-methylpropyl]-25-(piperidine-1-carbonyl)spiro[1,4,7,10,13,16,19,22,26,29,32-undecazabicyclo[32.3.0]heptatriacontane-31,1′-cyclopentane]-2,5,8,11,14,17,20,23,27,30,33-undecone] ([NMeL]I[Sar][Sar][NMeCha][Sar][hPhe(3-Cl-4-CF3)][cisHyp][Ac5c][NMeChg][NMeD]-Piperidide; lactam N-11)	0.54
CC[C@H](C)[C@@H]1NC(=O)[C@H](CC(C)C)N(C)C(=O)C[C@@H](C(=O)N2CCCCC2)N(C)C(=O)[C@H](C2CCCCC2)N(C)C(=O)C2(CCCC2)NC(=O)[C@H](CCC(F)F)N(C)C(=O)[C@H](CCc2ccc(C(F)(F)F)c(Cl)c2)NC(=O)CN(C)C(=O)[C@H](CC2CCCCC2)N(C)C(=O)CN(C)C(=O)CN(C)C1=O [Compound 523] ([NMeL]I[Sar][Sar][NMeCha][Sar][hPhe(3-Cl-4-CF3)][NMeNva(5,5-F2)][Ac5c][NMeChg][NMeD]-Piperidide; lactam N-11)	5.8
CCCOC[C@H]1C(=O)N(C)CC(=O)N[C@@H](CCc2ccc(C(F)(F)F)c(Cl)c2)C(=O)N2CCC[C@H]2C(=O)NC2(CCCC2)C(=O)N(C)[C@@H](C2CCCC2)C(=O)N(C)[C@H](C(=O)N2C3CCC2COC3)CC(=O)N(CC)[C@@H](CC(C)C)C(=O)N[C@@H]([C@@H](C)CC)C(=O)N(C)[C@@H](C)C(=O)N2CC[C@H]2C(=O)N1C [Compound 1193] ([NEtLeu]I[NMeA][Aze][NMeS](Propyl)[Sar][hPhe(3-Cl-4-CF3)]P[Ac5c][NMeGly(cPent)][NMeD]-{3Oxa8azabicyclo(3.2.1)octane}; lactam N-11)	2.1
CC[C@H](C)[C@@H]1NC(=O)[C@H](CC(C)C)N(C)C(=O)C[C@@H](C)N(C)C(=O)[C@H](C(C)C)N(C)C(=O)C2(CCCC2)NC(=O)[C@@H]2CCCN2C(=O)[C@H](CCc2ccc(C(F)(F)F)c(Cl)c2)NC(=O)CN(C)C(=O)[C@H](CC2CCCCC2)N(C)C(=O)[C@@H]2CCN2C(=O)[C@H](C)N(C)C1=O [Compound 1800] (cyclo([Ac5c][NMeV][NMedβ3hAla][NMeL]I[NMeA][Aze][NMeCha][Sar][hPhe(3-Cl-4-CF3)]P))	11
CCCOC[C@H]1C(=O)N(C)CC(=O)N[C@@H](CCc2ccc(C(F)(F)F)c(Cl)c2)C(=O)N2CCC[C@H]2C(=O)NC2(CCCC2)C(=O)N(C)[C@@H](C2CCCC2)C(=O)N(C)[C@H](C(=O)N2C3CCC2COC3)CC(=O)N(C)[C@@H](CC2CCCC2)C(=O)N[C@@H]([C@@H](C)CC)C(=O)N[C@@H](C)C(=O)N2CC[C@H]2C(=O)N1C [Compound 1359] ([NMeAla(cPent)]IA[Aze][NMeS](Propyl)[Sar][hPhe(3-Cl-4-CF3)]P[Ac5c][NMeGly(cPent)][NMeD]-{3Oxa8azabicyclo(3.2.1)octane}; lactam N-11)	6.2
CC[C@H](C)[C@@H]1NC(=O)[C@H](COCC(F)(F)F)N(C)C(=O)C[C@@H](C(=O)N2CCCCC2)N(C)C(=O)[C@H](C(C)C)N(C)C(=O)C2(CCCC2)NC(=O)[C@@H]2CCCN2C(=O)[C@H](CCc2ccc(C(F)(F)F)c(Cl)c2)NC(=O)CN(C)C(=O)[C@H](CC2CCCCC2)N(C)C(=O)[C@@H]2CCN2C(=O)[C@H](C)N(C)C1=O [Compound 387] ([NMeS](Trifluoroethyl)I[NMeA][Aze][NMeCha][Sar][hPhe(3-Cl-4-CF3)]P[Ac5c][NMeV][NMeD]-Piperidide; lactam N-11)	4.2
CC[C@H](C)[C@@H]1NC(=O)[C@H](CC(C)C)N(C)C(=O)C[C@@H](C)NC(=O)[C@H](C(C)C)N(C)C(=O)C2(CCCC2)NC(=O)[C@H](CC(=O)N2CCC(F)(F)CC2)N(C)C(=O)[C@H](CCc2ccc(C(F)(F)F)c(Cl)c2)NC(=O)CN(C)C(=O)[C@H](CC2CCCCC2)N(C)C(=O)CN(C)C(=O)CN(C)C1=O [Compound 452] (cyclo([Ac5c][NMeV][d(β3hA)][NMeL]I[Sar][Sar][NMeCha][Sar][hPhe(3-Cl-4-CF3)][NMeD](N(CH2CH2)2CF2)))	80
C#CC[C@@H]1CC(=O)N(C)[C@@H](CC(C)C)C(=O)N[C@@H]([C@@H](C)CC)C(=O)N(C)[C@@H](C)C(=O)N2CC[C@H]2C(=O)N(C)[C@@H](Cc2ccc(C)cc2)C(=O)N(C)CC(=O)N[C@@H](CCc2ccc(C(F)(F)F)c(Cl)c2)C(=O)N2CCC[C@H]2C(=O)NC2(CCCC2)C(=O)N(C)[C@@H]([C@@H](C)CC)C(=O)N1 [Compound 1967] (cyclo([Ac5c][NMeI][X4][NMeL]I[NMeA][Aze][NMePhe(4-Me)][Sar][hPhe(3-Cl-4-CF3)]P))	77
CC[C@H](C)[C@@H]1NC(=O)[C@H](CC(C)C)N(C)C(=O)C[C@@H](C(=O)N2CCCCC2)N(C)C(=O)[C@H](C2CCCC2)N(C)C(=O)C2(CCCC2)NC(=O)[C@@H]2CCCN2C(=O)[C@H](CCc2ccc(C(F)(F)F)c(F)c2)NC(=O)CN(C)C(=O)[C@H](CC2CCCCC2)N(C)C(=O)[C@@H]2CCN2C(=O)[C@H](C)N(C)C1=O [Compound 563] ([NMeL]I[NMeA][Aze][NMeCha][Sar][hPhe(3-F,4-CF3)]P[Ac5c][NMeGly(cPent)][NMeD]-Piperidide; lactam N-11)	1.1
CC[C@H](C)[C@@H]1NC(=O)[C@H](CC(C)C)N(C)C(=O)C[C@@H](C)N(C)C(=O)[C@H](C2CCCCC2)N(C)C(=O)C2(CCC2)NC(=O)[C@@H]2CC(F)(F)CN2C(=O)[C@H](CCc2ccc(C(F)(F)F)c(Cl)c2)NC(=O)CN(C)C(=O)[C@H](Cc2ccc(C(F)(F)F)cc2)N(CC)C(=O)[C@@H]2CCN2C(=O)[C@H](C)N(C)C1=O [Compound 345] (cyclo([Ac4c][NMeChg][NMedβ3hAla][NMeL]I[NMeA][Aze][NEtPhe(4-CF3)][Sar][hPhe(3-Cl-4-CF3)][Pro(4,4-F2)]))	58
CC[C@H](C)[C@@H]1NC(=O)[C@H](C)N(C)C(=O)C[C@@H](C)N(C)C(=O)[C@H](CC(C)C)NC(=O)C(C)(C)N(C)C(=O)[C@H](CC(C)C)NC(=O)[C@H](CCc2ccc(C(F)(F)F)c(Cl)c2)NC(=O)[C@@H](C)N(C)C(=O)[C@H](Cc2ccc(C)cc2)N(C)C(=O)CN(C)C(=O)CN(C)C1=O [Compound 1381] (cyclo(I[Sar][Sar][NMePhe(4-Me)][dNMeA][hPhe(3-Cl-4-CF3)]L[NMeAib]L[NMedβ3hAla][NMeA]))	150
CCCC[C@H]1C(=O)N2CC[C@H]2C(=O)N(C)[C@@H](CC2CCCCC2)C(=O)N(C)[C@H](C)C(=O)N[C@@H](CCc2ccc(C(F)(F)F)c(Cl)c2)C(=O)N2CCC[C@H]2C(=O)NC2(CCCC2)C(=O)N(C)[C@@H](C(C)C)C(=O)N[C@H](C)CC(=O)N(C)[C@@H](C)C(=O)N[C@@H]([C@@H](C)CC)C(=O)N1C [Compound 2017] (cyclo([Ac5c][NMeV][d(β3hA)][NMeA]I[NMeNle][Aze][NMeCha][dNMeA][hPhe(3-Cl-4-CF3)]P))	350

Reference: patent US20240148821A1, “PHARMACEUTICAL USE OF CYCLIC PEPTIDE COMPOUND” (CHUGAI SEIYAKU KABUSHIKI KAISHA, priority 2021, published 2024)
